Values belong to the compound of their own block, whether it stands above or below them.
Key:
LipT = molecular target: T1, LipT (uncultured bacterium, UniProt K7QE48); assay: spectrophotometric 4-nitrophenol release at […] nm; assay type: biochemical; conditions: 75°C, 0.1 M potassium phosphate pH 8.0
T1 construct: full ORF of 331 residues incl. predicted signal peptide (cleavage Ala21/Val22), C-terminal His6 (pET21a), E. coli BL21(DE3), Ni-NTA; about 36 kDa monomer, multimer (at least dimer)

[1] = tested on: T2, LipS-WT (uncultured bacterium); assay: X-ray crystal structure, […] Å; assay type: binding; conditions: active site next to S126 and H257, contact to D187; spermidine was added as crystallisation additive, residual density interpreted as spermidine; PDB code assigned by order of listing
T2 construct: crystallization construct LipS-WT with native N-terminus (disordered to about residue 35); space group P4, 4 molecules per asymmetric unit; dimer

LipS = molecular target: T3, LipS (Symbiobacterium thermophilum, UniProt Q67MR3); assay: pNP-decanoate hydrolysis, spectrophotometric at […] nm; assay type: biochemical; conditions: pNP-decanoate as substrate, 5 min preincubation, 70°C, 10 min
T3 construct: gene STH2045; full-length, 280 residues, C-terminal His6 (pET21a), E. coli BL21(DE3), Ni-NTA; dimer by SEC

[2] = molecular target: LipS with His6-tag at the C-terminus (LipS-H6) (metagenome-derived (100% identity to Symbiobacterium thermophilum)); assay: SEC; size exclusion chromatography during purification of LipS for crystallization; conditions not told (ref. 67)
[3] = molecular target: LipT (metagenome-derived (97% identity to Thermus scotoductus)); assay: SDS-PAGE after incomplete heat denaturation; 15% SDS-PAGE of purified LipT after 5 min at 95°C, Coomassie staining
[4] = molecular target: wild-type LipS (LipS-WT) (metagenome-derived (100% identity to Symbiobacterium thermophilum)); assay: SEC; size exclusion chromatography during purification of LipS for crystallization; conditions not told (ref. 67)

T3 sequence (Q67MR3 entry or part of it): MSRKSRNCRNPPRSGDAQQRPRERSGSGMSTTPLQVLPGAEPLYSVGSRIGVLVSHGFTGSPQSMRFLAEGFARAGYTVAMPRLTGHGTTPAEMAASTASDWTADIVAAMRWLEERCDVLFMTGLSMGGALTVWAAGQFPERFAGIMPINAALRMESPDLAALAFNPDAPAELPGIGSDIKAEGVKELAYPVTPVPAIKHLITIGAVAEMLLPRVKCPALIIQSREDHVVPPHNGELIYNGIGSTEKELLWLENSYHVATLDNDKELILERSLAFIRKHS
T1 sequence (K7QE48 1-328 limits assumed): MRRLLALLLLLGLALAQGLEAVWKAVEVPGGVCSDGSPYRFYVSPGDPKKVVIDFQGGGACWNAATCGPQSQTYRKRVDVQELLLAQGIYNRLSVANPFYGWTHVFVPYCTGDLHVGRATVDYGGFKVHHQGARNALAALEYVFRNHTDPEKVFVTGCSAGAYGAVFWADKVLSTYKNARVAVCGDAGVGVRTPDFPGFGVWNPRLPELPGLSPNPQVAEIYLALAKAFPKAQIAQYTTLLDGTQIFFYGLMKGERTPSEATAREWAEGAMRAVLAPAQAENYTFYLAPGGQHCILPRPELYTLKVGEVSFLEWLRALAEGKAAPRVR

Km (mol l^-1) (LipT): 1.1 • 10^−3 mol l^−1
Compound: CCCCCCCCCC(=O)Oc1ccc([N+](=O)[O-])cc1 [4-nitrophenol-decanoate (C10)]

stoichiometry N [2]: 2
Compound: LipS with His6-tag at the C-terminus (LipS-H6) (enzyme)

Second part, the compound before the results:

Compound: NCCCCNCCCN [spermidine]
X-ray crystal structure, 1.99 Å [1]: Spermidine was used as an additive to improve crystal quality
inhibition at 3 and 5 mM (LipS): shown to inhibit the activity of LipS with its substrate pNP-decanoate

Compound: LipT (enzyme)
stoichiometry N [3]: > 2

Compound: wild-type LipS (LipS-WT) (enzyme)
stoichiometry N [4]: 2

— PMC3480424, “The Metagenome-Derived Enzymes LipS and LipT Increase the Diversity of Known Lipases” (PLoS ONE, 2012)
